Test results: the kinase profiling compilation of Christmann-Franck et al. (2016)

Columns and labels:
Assay in all cases: radiometric filter-binding kinase assay, Kinase HotSpot
Details in all cases: compound 0.5 µM; ATP 10 µM
FLT3 (human) = FLT3 (human) (UniProt P36888)
ABL1 (human) = ABL1 (human) (UniProt P00519)
YES1 (human) = YES1 (human) (UniProt P07947)
TGFBR1 (human) = TGFBR1 (human) (UniProt P36897)
PDGFRA (human) = PDGFRA (human) (UniProt P16234)
CDK6 CCND1 (human) = CDK6 CCND1 (human) (UniProt Q00534+P24385)
CLK2 (human) = CLK2 (human) (UniProt P49760)
EPHA5 (human) = EPHA5 (human) (UniProt P54756)
MAPK9 (human) = MAPK9 (human) (UniProt P45984)
Chain of MAPK9 (human) (P45984 whole entry, looked up): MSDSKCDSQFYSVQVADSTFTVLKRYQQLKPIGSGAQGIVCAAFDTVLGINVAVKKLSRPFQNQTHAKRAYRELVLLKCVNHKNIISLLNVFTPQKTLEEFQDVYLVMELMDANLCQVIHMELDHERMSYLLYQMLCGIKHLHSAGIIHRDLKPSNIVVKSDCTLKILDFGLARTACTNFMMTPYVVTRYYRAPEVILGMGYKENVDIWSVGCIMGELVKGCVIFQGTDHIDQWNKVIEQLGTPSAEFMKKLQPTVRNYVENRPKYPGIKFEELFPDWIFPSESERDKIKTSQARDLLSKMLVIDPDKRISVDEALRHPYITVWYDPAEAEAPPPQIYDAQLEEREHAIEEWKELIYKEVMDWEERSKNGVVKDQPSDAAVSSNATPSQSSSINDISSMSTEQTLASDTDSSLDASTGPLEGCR

TBK1 (human) = TBK1 (human) (UniProt Q9UHD2)
CSNK1G3 (human) = CSNK1G3 (human) (UniProt Q9Y6M4)
CHEK2 (human) = CHEK2 (human) (UniProt O96017)
MAPKAPK2 (human) = MAPKAPK2 (human) (UniProt P49137)
CHUK (human) = CHUK (human) (UniProt O15111)
Chain of CHUK (human) (O15111 whole entry, looked up): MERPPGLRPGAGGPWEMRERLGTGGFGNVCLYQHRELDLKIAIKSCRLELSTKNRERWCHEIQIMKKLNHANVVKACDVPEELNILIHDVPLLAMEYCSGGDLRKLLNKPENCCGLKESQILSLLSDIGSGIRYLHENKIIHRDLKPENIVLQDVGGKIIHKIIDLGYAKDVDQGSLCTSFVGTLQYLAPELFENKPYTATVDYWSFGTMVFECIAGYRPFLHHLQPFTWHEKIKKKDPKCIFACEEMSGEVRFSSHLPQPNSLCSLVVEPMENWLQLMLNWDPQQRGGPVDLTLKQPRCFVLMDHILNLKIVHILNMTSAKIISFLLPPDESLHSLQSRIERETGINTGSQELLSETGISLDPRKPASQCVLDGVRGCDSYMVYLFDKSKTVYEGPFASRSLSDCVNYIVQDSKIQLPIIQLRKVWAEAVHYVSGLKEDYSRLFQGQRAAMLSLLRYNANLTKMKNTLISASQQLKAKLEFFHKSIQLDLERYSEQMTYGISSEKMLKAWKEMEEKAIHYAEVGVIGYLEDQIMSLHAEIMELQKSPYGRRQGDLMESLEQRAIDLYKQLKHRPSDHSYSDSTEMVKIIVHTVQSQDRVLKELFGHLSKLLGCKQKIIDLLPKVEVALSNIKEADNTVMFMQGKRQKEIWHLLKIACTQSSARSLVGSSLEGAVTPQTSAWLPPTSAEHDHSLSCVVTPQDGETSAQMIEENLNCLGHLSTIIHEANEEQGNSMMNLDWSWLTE

PRKD1 (human) = PRKD1 (human) (UniProt Q15139)
JAK3 JH1 JH2 (human) = JAK3 JH1 JH2 (human) (UniProt P52333)
CDK4 CCND3 (human) = CDK4 CCND3 (human) (UniProt P30281+P11802)
TYRO3 (human) = TYRO3 (human) (UniProt Q06418)
HIPK4 (human) = HIPK4 (human) (UniProt Q8NE63)
CLK3 (human) = CLK3 (human) (UniProt P49761)
CDC42BPB (human) = CDC42BPB (human) (UniProt Q9Y5S2)
MAP2K2 (human) = MAP2K2 (human) (UniProt P36507)
MAP3K11 (human) = MAP3K11 (human) (UniProt Q16584)
PRKCD (human) = PRKCD (human) (UniProt Q05655)
STK11 (human) = STK11 (human) (UniProt Q15831)
AXL (human) = AXL (human) (UniProt P30530)
STK10 (human) = STK10 (human) (UniProt O94804)
PRKG2 (human) = PRKG2 (human) (UniProt Q13237)
Chain of PRKG2 (human) (Q13237 whole entry, looked up): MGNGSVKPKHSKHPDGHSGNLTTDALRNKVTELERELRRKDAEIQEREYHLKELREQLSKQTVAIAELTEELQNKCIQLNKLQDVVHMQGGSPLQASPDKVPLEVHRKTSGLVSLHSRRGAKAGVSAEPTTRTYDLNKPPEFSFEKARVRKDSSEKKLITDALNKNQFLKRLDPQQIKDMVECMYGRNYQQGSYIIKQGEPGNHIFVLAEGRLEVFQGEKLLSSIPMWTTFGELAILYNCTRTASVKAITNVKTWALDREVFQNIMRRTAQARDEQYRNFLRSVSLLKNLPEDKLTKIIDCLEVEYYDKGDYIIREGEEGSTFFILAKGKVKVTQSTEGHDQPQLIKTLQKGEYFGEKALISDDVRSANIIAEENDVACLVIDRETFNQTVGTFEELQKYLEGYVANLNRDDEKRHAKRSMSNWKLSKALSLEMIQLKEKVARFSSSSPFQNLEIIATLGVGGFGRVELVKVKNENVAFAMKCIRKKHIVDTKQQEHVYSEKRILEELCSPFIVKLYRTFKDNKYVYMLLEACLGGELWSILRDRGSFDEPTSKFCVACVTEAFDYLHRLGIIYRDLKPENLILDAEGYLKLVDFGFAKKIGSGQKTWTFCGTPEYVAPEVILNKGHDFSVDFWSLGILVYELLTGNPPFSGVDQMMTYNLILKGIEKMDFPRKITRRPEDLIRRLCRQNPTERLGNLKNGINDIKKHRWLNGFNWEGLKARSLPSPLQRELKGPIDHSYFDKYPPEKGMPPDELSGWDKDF

[1] = test system: PRKCQ (human), Q04759 [P330L]
AURKC (human) = AURKC (human) (UniProt Q9UQB9)
CAMK1G (human) = CAMK1G (human) (UniProt Q96NX5)
LTK (human) = LTK (human) (UniProt P29376)
EGFR (human) = EGFR (human) (UniProt P00533)
DSTYK (human) = DSTYK (human) (UniProt Q6XUX3)
EPHA7 (human) = EPHA7 (human) (UniProt Q15375)
CAMK4 (human) = CAMK4 (human) (UniProt Q16566)
Chain of CAMK4 (human) (Q16566 whole entry, looked up): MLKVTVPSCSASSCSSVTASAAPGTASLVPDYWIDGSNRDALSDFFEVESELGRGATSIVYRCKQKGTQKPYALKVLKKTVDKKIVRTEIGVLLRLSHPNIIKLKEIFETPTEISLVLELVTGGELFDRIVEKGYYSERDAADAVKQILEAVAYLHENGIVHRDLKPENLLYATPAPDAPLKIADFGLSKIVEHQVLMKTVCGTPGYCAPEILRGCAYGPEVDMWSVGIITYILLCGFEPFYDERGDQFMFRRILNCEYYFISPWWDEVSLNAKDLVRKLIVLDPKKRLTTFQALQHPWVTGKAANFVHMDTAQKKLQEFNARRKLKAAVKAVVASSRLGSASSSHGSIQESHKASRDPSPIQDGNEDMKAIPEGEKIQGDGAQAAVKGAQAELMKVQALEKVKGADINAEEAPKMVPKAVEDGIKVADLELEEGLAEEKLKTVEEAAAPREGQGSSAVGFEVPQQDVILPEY

INSRR (human) = INSRR (human) (UniProt P14616)
CSNK1D (human) = CSNK1D (human) (UniProt P48730)
PRKX (human) = PRKX (human) (UniProt P51817)
Chain of PRKX (human) (P51817 whole entry, looked up): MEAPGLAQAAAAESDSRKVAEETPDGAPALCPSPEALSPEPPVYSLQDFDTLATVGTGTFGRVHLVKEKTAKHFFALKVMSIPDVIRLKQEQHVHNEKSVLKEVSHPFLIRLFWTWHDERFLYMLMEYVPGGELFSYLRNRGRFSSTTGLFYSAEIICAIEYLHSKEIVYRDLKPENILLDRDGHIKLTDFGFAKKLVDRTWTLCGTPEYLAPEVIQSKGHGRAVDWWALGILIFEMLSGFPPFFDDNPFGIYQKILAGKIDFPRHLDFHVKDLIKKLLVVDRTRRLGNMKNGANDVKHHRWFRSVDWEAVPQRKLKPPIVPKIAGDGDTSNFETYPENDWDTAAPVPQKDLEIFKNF

SRPK3 (human) = SRPK3 (human) (UniProt Q9UPE1)
CDK9 CCNT1 (human) = CDK9 CCNT1 (human) (UniProt P50750+O60563)
MAP3K3 (human) = MAP3K3 (human) (UniProt Q99759)

Chain of PDGFRA (human) (P16234 whole entry, looked up): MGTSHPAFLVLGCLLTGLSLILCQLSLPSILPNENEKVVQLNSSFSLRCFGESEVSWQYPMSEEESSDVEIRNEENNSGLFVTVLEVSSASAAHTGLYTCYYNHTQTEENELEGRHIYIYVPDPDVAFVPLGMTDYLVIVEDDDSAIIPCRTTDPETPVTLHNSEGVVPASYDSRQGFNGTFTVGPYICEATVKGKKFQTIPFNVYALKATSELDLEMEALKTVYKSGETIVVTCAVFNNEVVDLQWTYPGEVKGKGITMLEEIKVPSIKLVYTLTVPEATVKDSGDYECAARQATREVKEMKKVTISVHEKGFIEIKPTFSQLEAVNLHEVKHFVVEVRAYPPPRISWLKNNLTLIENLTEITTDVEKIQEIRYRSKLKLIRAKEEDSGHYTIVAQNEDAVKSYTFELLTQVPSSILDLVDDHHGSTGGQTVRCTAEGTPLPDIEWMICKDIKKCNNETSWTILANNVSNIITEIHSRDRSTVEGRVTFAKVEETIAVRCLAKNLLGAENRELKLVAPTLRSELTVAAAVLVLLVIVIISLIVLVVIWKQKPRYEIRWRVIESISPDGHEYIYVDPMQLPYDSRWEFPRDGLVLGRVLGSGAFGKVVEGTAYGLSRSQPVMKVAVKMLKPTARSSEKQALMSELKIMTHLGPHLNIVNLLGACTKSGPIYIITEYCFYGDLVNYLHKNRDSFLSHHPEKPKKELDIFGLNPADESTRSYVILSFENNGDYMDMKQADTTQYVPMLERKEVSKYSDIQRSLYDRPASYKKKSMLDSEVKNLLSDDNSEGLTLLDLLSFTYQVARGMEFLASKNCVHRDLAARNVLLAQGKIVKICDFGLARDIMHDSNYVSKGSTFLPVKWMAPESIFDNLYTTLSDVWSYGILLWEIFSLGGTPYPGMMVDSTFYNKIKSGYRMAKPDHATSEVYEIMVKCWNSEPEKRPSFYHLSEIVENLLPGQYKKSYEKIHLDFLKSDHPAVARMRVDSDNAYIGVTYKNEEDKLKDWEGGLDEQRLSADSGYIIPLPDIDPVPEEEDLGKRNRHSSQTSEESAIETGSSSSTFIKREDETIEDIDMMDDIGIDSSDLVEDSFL
Chain of TGFBR1 (human) (P36897 whole entry, looked up): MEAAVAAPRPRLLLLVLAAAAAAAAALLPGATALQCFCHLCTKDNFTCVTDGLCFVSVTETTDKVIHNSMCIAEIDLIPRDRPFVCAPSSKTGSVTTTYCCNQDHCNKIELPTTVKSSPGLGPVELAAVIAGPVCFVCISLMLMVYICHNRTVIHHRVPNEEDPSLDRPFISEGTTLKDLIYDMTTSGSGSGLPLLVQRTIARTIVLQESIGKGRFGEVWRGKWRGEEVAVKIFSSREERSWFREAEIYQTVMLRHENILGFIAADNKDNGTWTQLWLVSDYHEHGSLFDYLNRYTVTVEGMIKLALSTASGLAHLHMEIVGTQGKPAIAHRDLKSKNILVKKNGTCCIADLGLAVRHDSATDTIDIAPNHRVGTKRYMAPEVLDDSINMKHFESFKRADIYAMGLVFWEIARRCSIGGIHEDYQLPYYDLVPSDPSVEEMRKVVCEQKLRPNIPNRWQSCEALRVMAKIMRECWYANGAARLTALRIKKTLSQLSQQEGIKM
Chain of YES1 (human) (P07947 whole entry, looked up): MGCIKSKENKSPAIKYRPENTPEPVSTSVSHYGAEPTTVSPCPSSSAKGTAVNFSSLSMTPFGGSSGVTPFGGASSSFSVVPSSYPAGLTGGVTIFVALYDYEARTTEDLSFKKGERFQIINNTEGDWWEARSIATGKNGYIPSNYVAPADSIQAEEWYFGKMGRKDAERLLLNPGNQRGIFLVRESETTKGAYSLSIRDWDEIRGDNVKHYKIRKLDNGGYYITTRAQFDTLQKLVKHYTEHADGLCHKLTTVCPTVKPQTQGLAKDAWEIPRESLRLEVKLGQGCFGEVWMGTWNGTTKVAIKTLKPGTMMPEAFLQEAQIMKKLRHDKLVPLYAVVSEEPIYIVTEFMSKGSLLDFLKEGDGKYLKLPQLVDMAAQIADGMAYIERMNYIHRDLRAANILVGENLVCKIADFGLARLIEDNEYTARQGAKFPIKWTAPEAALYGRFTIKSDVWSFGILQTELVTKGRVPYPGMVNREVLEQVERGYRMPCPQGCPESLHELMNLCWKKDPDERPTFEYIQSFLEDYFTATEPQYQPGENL

CN(C)c1ccc(/C=C2\C(=O)Nc3ccccc32)cc1
residual activity (FLT3 (human)): 15.3% | residual activity (ABL1 (human)): 103% | residual activity (YES1 (human)): 89.3% | residual activity (TGFBR1 (human)): 96.7% | residual activity (PDGFRA (human)): 79.9% | residual activity (CDK6 CCND1 (human)): 101% | residual activity (CLK2 (human)): 99.7% | residual activity (EPHA5 (human)): 109% | residual activity (MAPK9 (human)): 103% | residual activity (TBK1 (human)): 98.4% | residual activity (CSNK1G3 (human)): 101% | residual activity (CHEK2 (human)): 91.6% | residual activity (MAPKAPK2 (human)): 106% | residual activity (CHUK (human)): 93.4% | residual activity (PRKD1 (human)): 100% | residual activity (JAK3 JH1 JH2 (human)): 113% | residual activity (CDK4 CCND3 (human)): 98.9% | residual activity (TYRO3 (human)): 92.7% | residual activity (HIPK4 (human)): 98.3% | residual activity (CLK3 (human)): 89.4% | residual activity (CDC42BPB (human)): 89.5% | residual activity (MAP2K2 (human)): 99.4% | residual activity (MAP3K11 (human)): 88.4% | residual activity (PRKCD (human)): 95.6% | residual activity (STK11 (human)): 99.4% | residual activity (AXL (human)): 93.8% | residual activity (STK10 (human)): 95.4% | residual activity (PRKG2 (human)): 105% | residual activity [1]: 104% | residual activity (AURKC (human)): 91.1% | residual activity (CAMK1G (human)): 99.9% | residual activity (LTK (human)): 96.8% | residual activity (EGFR (human)): 92.1% | residual activity (DSTYK (human)): 103% | residual activity (EPHA7 (human)): 99.1% | residual activity (CAMK4 (human)): 97.8% | residual activity (INSRR (human)): 94.5% | residual activity (CSNK1D (human)): 69% | residual activity (PRKX (human)): 104% | residual activity (SRPK3 (human)): 98.7% | residual activity (CDK9 CCNT1 (human)): 94.5% | residual activity (MAP3K3 (human)): 104%

COc1ccc2c(c1)/C(=C/c1cnc[nH]1)C(O)=N2
residual activity (FLT3 (human)): 9.29% | residual activity (ABL1 (human)): 93% | residual activity (YES1 (human)): 82.1% | residual activity (TGFBR1 (human)): 98.1% | residual activity (PDGFRA (human)): 94.9% | residual activity (CDK6 CCND1 (human)): 13.3% | residual activity (CLK2 (human)): 80.6% | residual activity (EPHA5 (human)): 86.2% | residual activity (MAPK9 (human)): 101% | residual activity (TBK1 (human)): 70.7% | residual activity (CSNK1G3 (human)): 103% | residual activity (CHEK2 (human)): 77.9% | residual activity (MAPKAPK2 (human)): 99.4% | residual activity (CHUK (human)): 110% | residual activity (PRKD1 (human)): 47.9% | residual activity (JAK3 JH1 JH2 (human)): 49.6% | residual activity (CDK4 CCND3 (human)): 49.6% | residual activity (TYRO3 (human)): 99.2% | residual activity (HIPK4 (human)): 90.8% | residual activity (CLK3 (human)): 103% | residual activity (CDC42BPB (human)): 104% | residual activity (MAP2K2 (human)): 108% | residual activity (MAP3K11 (human)): 61.6% | residual activity (PRKCD (human)): 95.5% | residual activity (STK11 (human)): 51.7% | residual activity (AXL (human)): 94.3% | residual activity (STK10 (human)): 67% | residual activity (PRKG2 (human)): 99.7% | residual activity [1]: 109% | residual activity (AURKC (human)): 67.8% | residual activity (CAMK1G (human)): 95.6% | residual activity (LTK (human)): 93.6% | residual activity (EGFR (human)): 99.4% | residual activity (DSTYK (human)): 106% | residual activity (EPHA7 (human)): 90.4% | residual activity (CAMK4 (human)): 97.4% | residual activity (INSRR (human)): 97.8% | residual activity (CSNK1D (human)): 93.6% | residual activity (PRKX (human)): 87.9% | residual activity (SRPK3 (human)): 96.2% | residual activity (CDK9 CCNT1 (human)): 67.4% | residual activity (MAP3K3 (human)): 84.2%

COc1ccc2c(c1)c(C1=C(c3c[nH]c4ccccc34)C(=O)NC1=O)cn2CCCN(C)C
residual activity (FLT3 (human)): 23.2% | residual activity (ABL1 (human)): 107% | residual activity (YES1 (human)): 90.4% | residual activity (TGFBR1 (human)): 101% | residual activity (PDGFRA (human)): 85.2% | residual activity (CDK6 CCND1 (human)): 64% | residual activity (CLK2 (human)): 78% | residual activity (EPHA5 (human)): 87.2% | residual activity (MAPK9 (human)): 86.1% | residual activity (TBK1 (human)): 90.7% | residual activity (CSNK1G3 (human)): 77.8% | residual activity (CHEK2 (human)): 38.8% | residual activity (MAPKAPK2 (human)): 99.7% | residual activity (CHUK (human)): 96.5% | residual activity (PRKD1 (human)): 68.8% | residual activity (JAK3 JH1 JH2 (human)): 138% | residual activity (CDK4 CCND3 (human)): 95.5% | residual activity (TYRO3 (human)): 90.7% | residual activity (HIPK4 (human)): 101% | residual activity (CLK3 (human)): 43.6% | residual activity (CDC42BPB (human)): 89.4% | residual activity (MAP2K2 (human)): 103% | residual activity (MAP3K11 (human)): 75.6% | residual activity (PRKCD (human)): 1.67% | residual activity (STK11 (human)): 101% | residual activity (AXL (human)): 98.7% | residual activity (STK10 (human)): 31.7% | residual activity (PRKG2 (human)): 60.7% | residual activity [1]: 4.5% | residual activity (AURKC (human)): 90.4% | residual activity (CAMK1G (human)): 95% | residual activity (LTK (human)): 81.9% | residual activity (EGFR (human)): 92.6% | residual activity (DSTYK (human)): 82.8% | residual activity (EPHA7 (human)): 88.8% | residual activity (CAMK4 (human)): 90.3% | residual activity (INSRR (human)): 101% | residual activity (CSNK1D (human)): 92% | residual activity (PRKX (human)): 102% | residual activity (SRPK3 (human)): 89.5% | residual activity (CDK9 CCNT1 (human)): 69.7% | residual activity (MAP3K3 (human)): 82.8%

O=C1C(Cl)=C(N2C(=O)CCC2=O)C(=O)c2ccccc21
residual activity (FLT3 (human)): 108% | residual activity (ABL1 (human)): 103% | residual activity (YES1 (human)): 103% | residual activity (TGFBR1 (human)): 101% | residual activity (PDGFRA (human)): 109% | residual activity (CDK6 CCND1 (human)): 100% | residual activity (CLK2 (human)): 90.7% | residual activity (EPHA5 (human)): 113% | residual activity (MAPK9 (human)): 93.6% | residual activity (TBK1 (human)): 97.9% | residual activity (CSNK1G3 (human)): 93.5% | residual activity (CHEK2 (human)): 95.7% | residual activity (MAPKAPK2 (human)): 105% | residual activity (CHUK (human)): 101% | residual activity (PRKD1 (human)): 104% | residual activity (JAK3 JH1 JH2 (human)): 101% | residual activity (CDK4 CCND3 (human)): 107% | residual activity (TYRO3 (human)): 114% | residual activity (HIPK4 (human)): 98.2% | residual activity (CLK3 (human)): 114% | residual activity (CDC42BPB (human)): 98.6% | residual activity (MAP2K2 (human)): 106% | residual activity (MAP3K11 (human)): 102% | residual activity (PRKCD (human)): 97.8% | residual activity (STK11 (human)): 99.8% | residual activity (PRKG2 (human)): 114% | residual activity [1]: 114% | residual activity (AURKC (human)): 97.9% | residual activity (CAMK1G (human)): 98.2% | residual activity (LTK (human)): 100% | residual activity (EGFR (human)): 98.4% | residual activity (DSTYK (human)): 95.4% | residual activity (EPHA7 (human)): 106% | residual activity (INSRR (human)): 96.9% | residual activity (CSNK1D (human)): 99.4% | residual activity (PRKX (human)): 103% | residual activity (SRPK3 (human)): 93.6% | residual activity (CDK9 CCNT1 (human)): 101% | residual activity (MAP3K3 (human)): 95.5%
